Measured values from patent publication US9290459B1, “Substituted bicyclic dihydropyrimidinones and their use as inhibitors of neutrophil elastase activity” (Boehringer Ingelheim International GmbH, priority 2013, dated 2016).

Biological target: Human neutrophil elastase (Homo sapiens (Human), UniProt P08246)
Assay: Human Neutrophil Elastase Assay
Type: biochemical
Conditions: human neutrophil elastase, substrate MeOSuc-Ala-Ala-Pro-Val-AMC 250 μM, pH 7.5; read-out: IC50

Chain of Human neutrophil elastase (P08246 30-247): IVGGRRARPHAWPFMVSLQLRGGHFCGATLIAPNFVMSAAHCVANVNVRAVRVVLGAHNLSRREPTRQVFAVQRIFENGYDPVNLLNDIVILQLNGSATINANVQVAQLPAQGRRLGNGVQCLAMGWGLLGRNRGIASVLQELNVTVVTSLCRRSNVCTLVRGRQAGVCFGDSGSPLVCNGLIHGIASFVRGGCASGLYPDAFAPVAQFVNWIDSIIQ

IC50 [nM] | Compound
< 1 | CNC(=O)N1C(=O)N(c2cccc(C(F)F)c2)C2=C(C(=O)CC2)C1c1ccc(C#N)cc1S(C)(=O)=O (stereo not drawn) [Example 53.1]
< 1 | CC(C)(O)CNC(=O)N1C(=O)N(c2cccc(C(F)F)c2)C2=C(C(=O)CC2)C1c1ccc(C#N)cc1S(C)(=O)=O (stereo not drawn) [Example 53.5]
1.5 | N#Cc1ccc(C2C3=C(CCC3=O)N(c3ccnc(C(F)(F)F)c3)C(=O)N2C(=O)NC2CC2)cc1 (racemic) [Example 54.3]
< 1 | CCNC(=O)N1C(=O)N(c2cccc(C(F)F)c2)C2=C(C(=O)CC2)C1c1ccc(C#N)cc1S(C)(=O)=O (stereo not drawn) [Example 53.2]
< 1 | CNC(=O)N1C(=O)N(c2ccnc(C(F)(F)F)c2)C2=C(C(=O)CC2)C1c1ccc(C#N)cc1S(C)(=O)=O (racemic) [Example 56.1]
< 1 | CS(=O)(=O)c1cc(C#N)ccc1[C@@H]1C2=C(CCC2=O)N(c2cccc(C(F)(F)F)c2)C(=O)N1C(=O)NC1CCOCC1 [Example 47.15]
4.9 | CNC(=O)N1C(=O)N(c2ccnc(C(F)(F)F)c2)C2=C(C(=O)CC2)C1c1ccc(C#N)cc1 (racemic) [Example 54.1]
< 1 | CS(=O)(=O)c1cc(C#N)ccc1[C@@H]1C2=C(CCC2=O)N(c2cccc(C(F)(F)F)c2)C(=O)N1C(=O)NCC1(O)CCC1 [Example 47.17]
< 1 | COCCNC(=O)N1C(=O)N(c2cccc(C(F)F)c2)C2=C(C(=O)CC2)C1c1ccc(C#N)cc1 (stereo not drawn) [Example 52.4]
37.7 | CS(=O)(=O)N1C(=O)N(c2cccc(C(F)(F)F)c2)C2=C(C(=O)CC2)C1c1ccc(C#N)cn1 (stereo not drawn) [Example 38.1]
3.7 | Cc1cc(C#N)ccc1C1C2=C(CCC2=O)N(c2cccc(C(F)(F)F)c2)C(=O)N1S(C)(=O)=O (stereo not drawn) [Example 37.1]
< 1 | CCS(=O)(=O)c1cc(C#N)ccc1C1C2=C(CCC2=O)N(c2cccc(C(F)(F)F)c2)C(=O)N1C(=O)NC (stereo not drawn) [Example 50.7]

Further lines, the molecule ahead of its results:

Compound | IC50 [nM]
CC(C(=O)NCCO)N1C(=O)N(c2cccc(C(F)(F)F)c2)C2=C(C(=O)CC2)C1c1ccc(C#N)cc1 (stereo not drawn) [Example 20, 2-(4-(4-Cyanophenyl)-2,5-dioxo-1-(3-(trifluoromethyl)phenyl)-6,7-dihydro-1H-cyclopenta[d]pyrimidin-3(2H,4H,5H)-yl)-N-(2-hydroxyethyl)propanamide] | 9.1
N#Cc1ccc(C2C3=C(CCC3=O)N(c3cccc(C(F)(F)F)c3)C(=O)N2CC(=O)N2CCSCC2)cc1 (stereo not drawn) [Example 6, 4-(2,5-Dioxo-3-(2-oxo-2-thiomorpholinoethyl)-1-(3-(trifluoromethyl)phenyl)-2,3,4,5,6,7-hexahydro-1H-cyclopenta[d]pyrimidin-4-yl)benzonitrile] | 3
COC(=O)CN1C(=O)N(c2cccc(C(F)(F)F)c2)C2=C(C(=O)CC2)C1c1ccc(C#N)cc1 (stereo not drawn) [Example 3, Methyl 2-(4-(4-Cyanophenyl)-2,5-dioxo-1-(3-(trifluoromethyl)phenyl)-6,7-dihydro-1H-cyclopenta[d]pyrimidin-3(2H,4H,5H)-yl)acetate] | 17
CSc1cc(C#N)ccc1C1C2=C(CCC2=O)N(c2cccc(C(F)(F)F)c2)C(=O)N1C (stereo not drawn) [Example 27.1, 4-(3-methyl-2,5-dioxo-1-(3-(trifluoromethyl)phenyl)-2,3,4,5,6,7-hexahydro-1H-cyclopenta[d]pyrimidin-4-yl)-3-(methylthio)benzonitrile] | 4.6
COC(=O)CCCS(=O)(=O)N1C(=O)N(c2cccc(C(F)(F)F)c2)C2=C(C(=O)CC2)C1c1ccc(C#N)cc1 (stereo not drawn) [Example 34, Methyl 4-(4-(4-Cyanophenyl)-2,5-dioxo-1-(3-(trifluoromethyl)phenyl)-6,7-dihydro-1H-cyclopenta[d]pyrimidin-3(2H,4H,5H)-ylsulfonyl)butanoate] | 3.2
COC(=O)N1C(=O)N(c2cccc(C(F)(F)F)c2)C2=C(C(=O)CC2)C1c1ccc(C#N)cc1 (stereo not drawn) [Example 8, Methyl 4-(4-Cyanophenyl)-2,5-dioxo-1-(3-(trifluoromethyl)phenyl)-4,5,6,7-tetrahydro-1H-cyclopenta[d]pyrimidine-3(2H)-carboxylate] | 4
C[S+]([O-])c1cc(C#N)ccc1C1NC(=O)N(c2cccc(C(F)(F)F)c2)C2=C1C(=O)CC2 (single isomer, unassigned) [Example 17B, 4-(2,5-dioxo-1-(3-(trifluoromethyl)phenyl)-2,3,4,5,6,7-hexahydro-1H-cyclopenta[d]pyrimidin-4-yl)-3-(methylsulfinyl)benzonitrile] | 9.4
CS(=O)(=O)N1C(=O)N(c2ccnc(C(F)(F)F)c2)C2=C(C(=O)CC2)C1c1ccc(C#N)cc1 (stereo not drawn) [Example 57, 4-(3-(Methylsulfonyl)-2,5-dioxo-1-(2-(trifluoromethyl)pyridin-4-yl)-2,3,4,5,6,7-hexahydro-1H-cyclopenta[d]pyrimidin-4-yl)benzonitrile] | 34.9
CS(=O)(=O)c1cc(C#N)ccc1[C@@H]1NC(=O)N(c2cccc(C(F)(F)F)c2)C2=C1C(=O)CC2 [Example 10B, (R)-4-(2,5-Dioxo-1-(3-(trifluoromethyl)phenyl)-2,3,4,5,6,7-hexahydro-1H-cyclopenta[d]pyrimidin-4-yl)-3-(methylsulfonyl)benzonitrile] | 98.4
CS(=O)(=O)N1C(=O)N(c2cccc(C(F)(F)F)c2)C2=C(C(=O)CC2)C1c1ccc(C#N)cc1 (stereo not drawn) [Example 9, 4-(3-(Methylsulfonyl)-2,5-dioxo-1-(3-(trifluoromethyl)phenyl)-2,3,4,5,6,7-hexahydro-1H-cyclopenta[d]pyrimidin-4-yl)benzonitrile] | 5.1
CC(C)(O)CNC(=O)N1C(=O)N(c2cccc(C(F)(F)F)c2)C2=C(C(=O)CC2)C1c1ccc(C#N)cc1 (stereo not drawn) [Example 41, 4-(4-Cyanophenyl)-N-(2-hydroxy-2-methylpropyl)-2,5-dioxo-1-(3-(trifluoromethyl)-phenyl)-4,5,6,7-tetrahydro-1H-cyclopenta[d]pyrimidine-3(2H)-carboxamide] | 1.4
N#Cc1ccc([C@H]2NC(=O)N(c3cccc(C(F)(F)F)c3)C3=C2C(=O)CC3)nc1 [Example 15.3A, (S)-6-(2,5-Dioxo-1-(3-(trifluoromethyl)phenyl)-2,3,4,5,6,7-hexahydro-1H-cyclopenta[d]pyrimidin-4-yl)nicotinonitrile] | 31.5
N#Cc1ccc(C2C3=C(CCC3=O)N(c3cccc(C(F)(F)F)c3)C(=O)N2CC(N)=O)cc1 (stereo not drawn) [Example 5, 2-(4-(4-Cyanophenyl)-2,5-dioxo-1-(3-(trifluoromethyl)phenyl)-6,7-dihydro-1H-cyclopenta[d]pyrimidin-3(2H,4H,5H)-yl)acetamide] | 11.2
N#Cc1ccc(C2C3=C(CCC3=O)N(c3cccc(C(F)(F)F)c3)C(=O)N2C(N)=O)cc1 (stereo not drawn) [Example 40, 4-(4-Cyanophenyl)-2,5-dioxo-1-(3-(trifluoromethyl)phenyl)-4,5,6,7-tetrahydro-1H-cyclopenta[d]pyrimidine-3(2H)-carboxamide] | 2.2
N#Cc1ccc(C2C3=C(CCC3=O)N(c3cccc(C(F)F)c3)C(=O)N2C(=O)NCCCO)cc1 (stereo not drawn) [Example 52, 4-(4-Cyanophenyl)-1-(3-(difluoromethyl)phenyl)-N-(3-hydroxypropyl)-2,5-dioxo-4,5,6,7-tetrahydro-1H-cyclopenta[d]pyrimidine-3(2H)-carboxamide] | < 1
